Measured values from ChEMBL document CHEMBL1158312, “Cytotoxic triterpenes from a marine sponge, Stelletta sp” (J Nat Prod, 1996).
Active and inactive are the calls of the source.

How the values were obtained:
[1] = molecular target: T1, Retinoic acid receptor RXR-alpha (Mus musculus) (UniProt P28700); experiment: Antagonist activity at mouse RXRalpha assessed as inhibition of 9-cis-retinoic acid-induced response by differential proteolytic sensitivity assay; assay type: functional
T1 sequence (whole entry): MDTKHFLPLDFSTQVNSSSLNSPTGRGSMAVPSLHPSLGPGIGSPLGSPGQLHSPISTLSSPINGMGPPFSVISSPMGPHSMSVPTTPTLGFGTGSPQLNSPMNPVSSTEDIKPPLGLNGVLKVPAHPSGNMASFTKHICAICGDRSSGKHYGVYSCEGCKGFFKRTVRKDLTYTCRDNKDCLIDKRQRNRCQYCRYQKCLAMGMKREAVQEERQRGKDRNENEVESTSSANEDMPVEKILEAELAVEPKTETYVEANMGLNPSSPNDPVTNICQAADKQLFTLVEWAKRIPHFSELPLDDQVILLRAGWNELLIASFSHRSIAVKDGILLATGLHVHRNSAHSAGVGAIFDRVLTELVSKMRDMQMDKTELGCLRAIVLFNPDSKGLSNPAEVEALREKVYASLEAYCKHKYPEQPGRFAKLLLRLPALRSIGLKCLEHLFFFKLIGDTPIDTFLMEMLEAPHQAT

[2] = molecular target: T1, Retinoic acid receptor RXR-alpha (Mus musculus); experiment: Binding affinity to mouse RXRalpha assessed as induction of receptor conformational change at 1 uM
[3] = molecular target: T2, Retinoic acid receptor RXR-alpha (Homo sapiens) (UniProt P19793); experiment: Binding affinity to human RXRalpha assessed as induction of receptor conformational change at 1 uM
T2 sequence (whole entry): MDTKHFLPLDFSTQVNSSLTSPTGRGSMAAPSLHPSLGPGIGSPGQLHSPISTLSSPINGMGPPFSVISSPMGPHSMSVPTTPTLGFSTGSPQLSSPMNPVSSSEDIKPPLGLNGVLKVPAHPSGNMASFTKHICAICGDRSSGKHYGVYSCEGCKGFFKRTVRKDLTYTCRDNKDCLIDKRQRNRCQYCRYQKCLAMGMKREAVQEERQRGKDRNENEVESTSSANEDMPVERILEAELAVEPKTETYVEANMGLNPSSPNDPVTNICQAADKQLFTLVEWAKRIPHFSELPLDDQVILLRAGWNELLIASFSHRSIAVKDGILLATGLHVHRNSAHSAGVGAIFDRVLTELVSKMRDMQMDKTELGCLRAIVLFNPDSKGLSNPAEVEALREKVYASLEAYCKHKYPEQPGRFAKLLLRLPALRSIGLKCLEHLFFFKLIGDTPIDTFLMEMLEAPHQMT

Measured: Activity

CC(/C=C/C=C(\C)c1ccc(C)c(=O)o1)=C1/C(=O)C[C@H]2[C@@]3(C)CCC(=O)C(C)(C)[C@@H]3CC[C@]12C
inactive: all assays above

C/C(=C/C=C/C(C)=C/C=C/C(C)=C1\C(=O)C[C@H]2[C@@]3(C)CCC(=O)C(C)(C)[C@@H]3CC[C@]12C)C(=O)O
inactive: all assays above
